The results in this text go back to EPA's ToxValDB 9.5 (doi:10.2903/j.efsa.2018.5211).

Converted amounts (≈) assume the structure as drawn.

In one series the test system is Apis mellifera. The settings on record: acute, duration: 48 hours, mortality.
The next series has as its system Canidae. Particulars: subchronic; duration: 90 days; dermal; Dog Other; organ weight.
The test system of a further series is Daphnia magna. The settings on record: chronic/long-term; duration: 21 days; reproduction.
Another series relates to Folsomia candida. The settings on record: chronic/long-term; mortality.
The next series has as its system Neomysis kadiakensis. Particulars: acute; duration: 48 hours; mortality.
The subject of another series is Tagia sp. Particulars: chronic/long-term; duration: 56 days; growth.
A further series deals with Aphidius rhopalosiphi. Kind of series: LR50; higher = less toxic. Particulars: not reported; mortality.
Another series concerns Typhlodromus pyri. As to the kind of experiment: LR50; higher = less toxic. Particulars: not reported; reproduction.

As for `COC[C@H](C)N(C(=O)CCl)c1c(C)csc1C` [Dimethenamid-P], the LD50 came out at 93.8 µg/piece in the series on Apis mellifera (dermal); 119 µg/piece in the series on Apis mellifera (oral, unspecified); 1070 mg/kg-day with Colinus virginianus (acute, oral, mortality); 466 mg/kg-day in the series with Rattus norvegicus (acute, oral, mortality). The NOAEL with Canidae was 4.3 mg/kg-day; in the series on Colinus virginianus (reproduction developmental) it was 114 mg/kg-day; in the series on Rattus norvegicus (chronic, duration: 2 years, organ weight) it was 5 mg/kg-day; in the series with Rattus norvegicus (developmental, development), 25 mg/kg-day. The molecule also showed an LEL in the series with Colinus virginianus (chronic, mortality) of 107 mg/kg-day. Also, the NOEC is 0.68 mg/L in the series with Daphnia magna; 12.5 mg/kg in the series on Folsomia candida; 0.12 mg/L in the series on Oncorhynchus mykiss (chronic/long-term, growth); 25.4 mg/kg in the series on Tagia sp.. Besides, the LC50 turned out to be 3.2 µg/mL (≈ 11.6 µM) in the series on Neomysis kadiakensis and 2.6 µg/mL (≈ 9.43 µM) with Oncorhynchus mykiss (acute, duration: 96 hours, mortality). In the series with Rattus norvegicus (reproduction developmental, food consumption), this molecule showed an LOAEL of 25 mg/kg-day. Moreover, the LR50 is 66.3 mL/ha in the series on Aphidius rhopalosiphi and over 1.4e+06 mL/ha with Typhlodromus pyri.
